Publication PMC6703555 (Journal of medicinal chemistry, 2018)

Assays:
Vγ9Vδ2 T cells = settings: 72 hour compound exposure, PBMCs; cited from earlier work
B30.2 domain of BTN3A1 = settings: ITC; cited from earlier work
[1] = human plasma
cancer cells = settings: 2 hour exposure; cited from earlier work
in vitro = settings: human, plasma, pH 7.5, half-life, 50% pooled human plasma in PBS

## COP(=O)(CC/C=C(\C)CO)OC [Compound 11]
Vγ9Vδ2 T cells
  EC50: > 10000 nM

## C/C(=C\CCP(=O)([O-])[O-])CO.[Na+].[Na+] [Compound 10]
Vγ9Vδ2 T cells
  EC50: 4000 nM
B30.2 domain of BTN3A1
  binding to the B30.2 domain of BTN3A1: does bind

## C/C(=C\CCP(=O)(OCOC(=O)C(C)(C)C)OCOC(=O)C(C)(C)C)CO [Compound 2]
[1]
  hydrolysis after two hours: more than 95%
Cancer cells
  EC50: 1.2 nM
In vitro
  half-life: ~8 min

## C/C(=C\COP(=O)(O)OP(=O)(O)O)CO [HMBPP, (E)-4-hydroxy-3-methyl-but-2-enyl diphosphate]
Cancer cells
  EC50: 19 nM
